What was measured:
Assay type in all cases: cell-based
[1] = tested on: isogenic paired GBM39 cells; test: 3D soft agar assay; conditions: GBM39 isogenic pair
Text: (§1) FIGS. 13A-13B. […] FIG. 13A) 3D soft agar assay in isogenic paired GBM39 cells treated with Olaparib or Rucaparib. Quantification of colonies as measured by ColonyArea software (bottom). FIG. 13B) 3D soft agar assay in isogenic paired COLO320 cells (a colon cancer cell line) treated with Olaparib or Rucaparib. Quantification of colonies as measured by ColonyArea software (bottom).

[2] = tested on: isogenic paired COLO320 cells; test: 3D soft agar assay; conditions: COLO320 isogenic pair (colon cancer cell line)
Text: as §1

PC3 cells = test: 2D colony formation assay with crystal violet staining; conditions: PC3 cells compared with immortalized HEK293 cells
Method: FIGS. 12A-12C. […] FIG. 12A) Acute cell toxicity following 4 days treatment with 10 μM of indicated PARPi. Cell death measured by FACS analysis of Sytox Red staining in 2 normal cell types (astrocytes and HEK293), PC3 ecDNA-containing cells, and the paired GBM39 cells. FIG. 12B) 2D colony formation assay and crystal violet staining in immortalized HEK293 cells and PC3 cells after treatment with Olaparib or Rucaparib. FIG. 12C) Colony number quantification by Colony Area software plug-in for ImageJ from data in (FIG. 12B).

ecDNA = test: Replication stress on ecDNA versus chromosomal DNA; conditions: vehicle versus erlotinib; ecDNA vs chromosomal DNA
GBM39 cells = test: Exosomal export of oncogenes amplified on ecDNA (FISH probe and PCR analysis of purified exosomes); conditions: exosomes purified from treated GBM39 cells
GBM cells [3] = test: Glucose levels in cells
GBM cells [4] = test: Loss of EGFR-containing ecDNA / EGFR oncogene DNA (number of ecDNAs per metaphase)

| SMILES | 3D soft agar colonies [1] | 3D soft agar colonies [2] | 2D colony formation (colony number) (PC3 cells) | replication stress on ecDNA (frequency of pRPA(533) positive metaphase) (ecDNA) | cellular level of oncogenes amplified on ecDNA, via exosomal export (GBM39 cells) | glucose levels in GBM cells (GBM cells [3]) | loss of ecDNA containing amplified EGFRvIII (number of ecDNAs per metaphase) (GBM cells [4]) |
| --- | --- | --- | --- | --- | --- | --- | --- |
| O=C(c1cc(Cc2n[nH]c(=O)c3ccccc23)ccc1F)N1CCN(C(=O)C2CC2)CC1 [Olaparib, olaparib] | sensitive to PARP inhibition | sensitive to PARP inhibition | sensitive to PARP inhibition |  |  |  |  |
| CNCc1ccc(-c2[nH]c3cc(F)cc4c3c2CCNC4=O)cc1 [Rucaparib, rucaparib] | sensitive to PARP inhibition | sensitive to PARP inhibition | sensitive to PARP inhibition |  |  |  |  |
| C#Cc1cccc(Nc2ncnc3cc(OCCOC)c(OCCOC)cc23)c1 [erlotinib] |  |  |  | specifically causes replication stress on ecDNA, but not on chromosomal DNA | reduction of cellular level of oncogenes amplified on ecDNA | lowers glucose levels in GBM cells | causes the loss of ecDNA containing amplified EGFRvIII |

— patent US20210047693A1, “METHODS OF TREATING EXTRACHROMOSOMAL DNA EXPRESSING CANCERS” (THE REGENTS OF THE UNIVERSITY OF CALIFORNIA, priority 2017, published 2021)
